Like-named read-outs stand apart in the source and are kept apart here.
How the values were obtained:
Details in all cases: Homo sapiens, 4 h, two to four hours at 37° C.
[1] = system: P-P70S6K (T389); assay: Cell based AlphaLISA assay, inhibition of P-P70S6K (T389) in MDA-MB-468 cells (mTORC1 substrate)
How it was run: (§1)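 In MDA-MB-468 cells, phosphorylation of 4EBP1 (Thr37/46), P70S6K (Thr389) and AKT (Ser473) was measured after incubation with inhibitor by AlphaLISA SureFire Ultra on cell lysates, in duplicate. IC50 values came from control-normalized concentration-response regression.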

[2] = system: P-4E-BP1 (T37/46); assay: Cell based AlphaLISA assay, inhibition of P-4E-BP1 (T37/46) in MDA-MB-468 cells (mTORC1 substrate)
How it was run: as §1

[3] = system: P-Akt (S473); assay: Cell based AlphaLISA assay, inhibition of P-Akt (S473) in MDA-MB-468 cells (mTORC2 substrate)
How it was run: as §1

[4] = AlphaLisa, read-out: pIC50 for Inhibition of mTORC1 and mTORC2 Substrate Phosphorylation p-P70S6K-(T389) (converted)
[5] = AlphaLisa, read-out: pIC50 for Inhibition of mTORC1 and mTORC2 Substrate Phosphorylation P-4E-BP1-(T37/46) (converted)
[6] = AlphaLisa, read-out: pIC50 for Inhibition of mTORC1 and mTORC2 Substrate Phosphorylation p-AKT1/2/3-(S473) (converted)
[7] = AlphaLisa SureFire Ultra, read-out: IC50 for Inhibition of mTORC1 and mTORC2 Substrate Phosphorylation (nM) p-P7056K-(T389)
[8] = AlphaLisa SureFire Ultra, read-out: IC50 for Inhibition of mTORC1 and mTORC2 Substrate Phosphorylation (nM) p-4E-BP1-(T37/46)
[9] = AlphaLisa SureFire Ultra, read-out: IC50 for Inhibition of mTORC1 and mTORC2 Substrate Phosphorylation (nM) p-AKT1/2/3-(5473)

SMILES | IC50 [1, 4] [nM] | IC50 [2, 5] [nM] | IC50 [3, 6] [nM] | IC50 [1, 7] [nM] | IC50 [2, 8] [nM] | IC50 [3, 9] [nM]
CO[C@H]1C[C@@H]2CC[C@@H](C)[C@@](O)(O2)C(=O)C(=O)N2CCCC[C@H]2C(=O)O[C@H]([C@H](C)C[C@@H]2CC[C@@H](OC(=O)NCc3cnc(N4CCN(c5ncc(C(=O)N6CCN(c7ncc(C(=O)N8CCc9cc(Cn%10nc(-c%11ccc%12oc(N)nc%12c%11)c%11c(N)ncnc%11%10)ccc9C8)cn7)CC6)cn5)CC4)nc3)[C@H](OC)C2)CC(=O)[C@H](C)/C=C(\C)[C@@H](O)[C@@H](OC)C(=O)[C@H](C)C[C@H](C)/C=C/C=C/C=C/1C [Example 139] | < 1 | < 3.16 | 31.6 to 1000 | – | – | –
CO[C@H]1C[C@@H]2CC[C@@H](C)[C@@](O)(O2)C(=O)C(=O)N2CCCC[C@H]2C(=O)O[C@H]([C@H](C)C[C@@H]2CC[C@@H](OC(=O)NCc3cnc(N4CCN(c5ncc(C(=O)N6CCN(c7ncc(C(=O)N8CCc9cc(Cn%10nc(-c%11cnc%12[nH]ccc%12c%11)c%11c(N)ncnc%11%10)ccc9C8)cn7)CC6)cn5)CC4)nc3)[C@H](OC)C2)CC(=O)[C@H](C)/C=C(\C)[C@@H](O)[C@@H](OC)C(=O)[C@H](C)C[C@H](C)/C=C/C=C/C=C/1C [Example 140] | 10 to 1000 | 31.6 to 1000 | > 1000 | – | – | –
CO[C@H]1C[C@@H]2CC[C@@H](C)[C@@](O)(O2)C(=O)C(=O)N2CCCC[C@H]2C(=O)O[C@H]([C@H](C)C[C@@H]2CC[C@@H](OC(=O)N3CCc4nc(N5CCN(c6ncc(C(=O)N7CCN(c8ncc(C(=O)N9CCc%10cc(Cn%11nc(-c%12cnc%13[nH]ccc%13c%12)c%12c(N)ncnc%12%11)ccc%10C9)cn8)CC7)cn6)CC5)ncc4C3)[C@H](OC)C2)CC(=O)[C@H](C)/C=C(\C)[C@@H](O)[C@@H](OC)C(=O)[C@H](C)C[C@H](C)/C=C/C=C/C=C/1C [Example 142] | 1 to 10 | > 1000 | > 1000 | – | – | –
CO[C@H]1C[C@@H]2CC[C@@H](C)[C@@](O)(O2)C(=O)C(=O)N2CCCC[C@H]2C(=O)O[C@H]([C@H](C)C[C@@H]2CC[C@@H](OC(=O)NCCOCCOCCN3CCN(CCOCCOCCOCCOCCC(=O)N4CCc5cc(Cn6nc(-c7ccc8oc(N)nc8c7)c7c(N)ncnc76)ccc5C4)CC3)[C@H](OC)C2)C[C@@H](O)[C@H](C)/C=C(\C)[C@@H](O)[C@@H](OC)C(=O)[C@H](C)C[C@H](C)/C=C/C=C/C=C/1C [Example 143] | < 1 | 3.16 to 31.6 | > 1000 | – | – | –
CO[C@H]1C[C@@H]2CC[C@@H](C)[C@@](O)(O2)C(=O)C(=O)N2CCCC[C@H]2C(=O)O[C@H]([C@H](C)C[C@@H]2CC[C@@H](OC(=O)NCCOCCOCCN3C[C@@H]4C[C@H]3CN4CCOCCOCCOCCOCCC(=O)N3CCc4cc(Cn5nc(-c6ccc7oc(N)nc7c6)c6c(N)ncnc65)ccc4C3)[C@H](OC)C2)C[C@@H](O)[C@H](C)/C=C(\C)[C@@H](O)[C@@H](OC)C(=O)[C@H](C)C[C@H](C)/C=C/C=C/C=C/1C [Example 144] | < 1 | < 3.16 | 3.16 to 31.6 | – | – | –
CC(C)n1nc(-c2ccc3oc(N)nc3c2)c2c(N)ncnc21 [MLN-128, reference compound] | – | – | – | 1.4 | 16 | 3.7
CO[C@H]1C[C@@H]2CC[C@@H](C)[C@@](O)(O2)C(=O)C(=O)N2CCCC[C@H]2C(=O)O[C@H]([C@H](C)C[C@@H]2CC[C@@H](O)[C@H](OC)C2)CC(=O)[C@H](C)/C=C(\C)[C@@H](O)[C@@H](OC)C(=O)[C@H](C)C[C@H](C)/C=C/C=C/C=C/1C [Rapamycin, (3S,6R,7E,9R,10R,12R,14S,15E,17E,19E,21S,23S,26R,27R,34aS)-9,10,12,13,14,21,22,23,24,25,26,27,32,33,34,34a-hexadecahydro-9,27-dihydroxy-3-[(1R)-2-[(1S,3R,4R)-4-hydroxy-3-methoxycyclohexyl]-1-methylethyl]-10,21-dimethoxy-6,8,12,14,20,26-hexamethyl-23,27-epoxy-3H-pyrido[2,1-c][1,4]-oxaazacyclohentriacontine-1,5,11,28,29(4H,6H,31H)-pentone, reference compound] | – | – | – | 0.2 | > 1000 | > 1000

Source: patent US10980889B1 (Revolution Medicines, Inc., priority 2018, dated 2021)
